Data taken from publication PMC11930985 (Nature Communications, 2025).
“And” between values parts separate entries of the source, which are not always exact repeats. Equal values may be shown once. Read-outs that look alike come from different tables or passages of the source.

Experiments:
[1] = test system: CYP3A4/5; set-up: method as in Investigator's Brochure (IB) version 5.0; conditions: ref Investigator's Brochure (IB) version 5.0; cited from earlier work
[2] = Bemcentinib plasma PK (LC-MS/MS, population PK model); format: in vivo, human; conditions: for Cmax / AUC / half-life: human, plasma, oral; for Cmax: read-out: mean Cmax at steady state
Method: Thereafter, a pre-dose sample was collected at all study visits ( > Cycle 3 up to and including Cycle 15) and at End of Study. PK samples were measured using a fully validated liquid chromatography with tandem mass spectrometry method for bemcentinib. […] The PopPK model was developed by evaluating various structural models including 1 compartment and 2 compartment models. Covariate analysis was performed using a forward addition and backward elimination procedure, from which a preliminary base model was selected. During covariate analysis, continuous covariates were centered on the median population values, and the most common or most relevant category was used as the reference value for categorical covariates. A visual predictive check (VPC) was conducted to verify that the final model adequately predicted both the central tendency and variability of the observed data across studies or by proton pump inhibitor use. Quantification of parameter uncertainty in the final model was assessed by nonparametric bootstrap analysis. Population PK analysis was performed using the nonlinear mixed effects modelling methodology as implemented in the NONMEM program Version 7.4.4[35]. Data postprocessing was performed using R (Version 3.6.1)[36]. Individual population PK model parameters were estimated using NONMEM with the following $ESTIMATION parameters: METHOD = COND INTERACTION […] = 0 […] = 3. These parameters were subsequently used to predict individual steady-state profiles with a dense PK sampling scheme using the SIMULATION method in NONMEM.

Structure (SMILES): Nc1nc(Nc2ccc3c(c2)CC[C@@H](N2CCCC2)CC3)nn1-c1cc2c(nn1)-c1ccccc1CCC2 [Bemcentinib]
- Substrate and time-dependent inhibition of CYP3A4/5 activity [1]: modest
- mean Ctrough at steady state ([2]; DE cohort, maintenance 100 mg daily): 136 ± 109 ng/mL
- mean Ctrough at steady state ([2]; DE cohort, maintenance 300 mg daily): 382 ± 193 ng/mL
- bemcentinib concentration ([2]; Figure 4, individual patients, concentration paired with maximum pAXL(Y779) inhibition): 358 ng/mL and 79 ng/mL and 276 ng/mL and 103 ng/mL and 178 ng/mL and 74 ng/mL and 173 ng/mL and 0 ng/mL and 122 ng/mL and 105 ng/mL and 73.3 ng/mL and 6.36 ng/mL
- mean Ctrough at steady state ([2]; LDAC cohort, maintenance 200 mg daily): 196 ± 124 ng/mL
- bemcentinib concentration ([2]; Supplementary Figure 1b, individual patients, concentration paired with maximum pSTAT5 (Y694) inhibition): 358 ng/mL and 145 ng/mL and 276 ng/mL and 103 ng/mL and 124 ng/mL and 74 ng/mL and 118 ng/mL and 0 ng/mL and 81.5 ng/mL and 112 ng/mL and 270 ng/mL
- bemcentinib concentration ([2]; Supplementary Figure 1c, individual patients, concentration paired with maximum pERK1/2 (T202/Y204) inhibition): 358 ng/mL and 78.9 ng/mL and 276 ng/mL and 134 ng/mL and 130 ng/mL and 74.6 ng/mL and 118 ng/mL and 0 ng/mL and 98 ng/mL and 94 ng/mL and 73.4 ng/mL and 270 ng/mL
- bemcentinib concentration ([2]; Supplementary Figure 1d, individual patients, concentration paired with maximum pAKT (S473) inhibition): 408 ng/mL and 78.9 ng/mL and 276 ng/mL and 103 ng/mL and 130 ng/mL and 74 ng/mL and 225 ng/mL and 0 ng/mL and 81.5 ng/mL and 183 ng/mL and 73.4 ng/mL and 270 ng/mL
- Cmax ([2]; 100 mg, DE cohort, maintenance 100 mg daily, 10 patients): 140 ± 110 ng/mL
- AUC ([2]; 100 mg, DE cohort, maintenance 100 mg daily, read-out: AUC): 3310 ± 2630 ng·h/mL
- half-life ([2]; 200 mg daily, LDAC cohort, read-out: median t1/2 (converted)): 124 h
- Cmax ([2]; 200 mg, DE cohort, maintenance 200 mg daily, 21 patients): 162 ± 121 ng/mL
- AUC ([2]; 200 mg, DE cohort, maintenance 200 mg daily, read-out: AUC): 3810 ± 2860 ng·h/mL
- Cmax ([2]; 200 mg, LDAC cohort, maintenance 200 mg daily, 35 patients): 210 ± 128 ng/mL
- AUC ([2]; 200 mg, LDAC cohort, maintenance 200 mg daily, read-out: mean AUC): 4890 ± 3020 ng·h/mL
- Cmax ([2]; 300 mg, DE cohort, maintenance 300 mg daily, 5 patients): 398 ± 200 ng/mL
- AUC ([2]; 300 mg, DE cohort, maintenance 300 mg daily, read-out: AUC): 9390 ± 4720 ng·h/mL
- half-life ([2]; DE cohort, maintenance 100 mg daily, read-out: median half-life (t1/2) (converted)): 159 h
- half-life ([2]; DE cohort, maintenance 200 mg daily, read-out: median half-life (t1/2) (converted)): 124 h
- half-life ([2]; DE cohort, maintenance 300 mg daily, read-out: median half-life (t1/2) (converted)): 156 h
